According to patent publication US20230114728A1 (Venatorx Pharmaceuticals, Inc., priority 2019, published 2023):
≈ marks a conversion by molar mass, not a printed value.

Key:
Assay in all cases: Broth microdilution MIC in CAMHB
Type in all cases: cell-based
E. coli 901C = conditions: Escherichia coli; E. coli 901C (hyper-permeable); MHB; read-out: Minimum Inhibitory Concentration, E. coli 901C
Procedure, shortened: (§1)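 Colonies from cation-adjusted Mueller Hinton agar are grown in broth (3-5 h, 37° C), adjusted by OD600, and added at 2-8×10^5 CFU/mL to 2-fold compound dilutions. After 16-20 h at 37° C, the lowest concentration without growth is taken as MIC.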

E. coli AG100 = conditions: Escherichia coli; E. coli AG100 (wild-type parent); MHB; read-out: Minimum Inhibitory Concentration, E. coli AG100
Procedure, shortened: as §1

E. coli D22 = conditions: Escherichia coli; E. coli D22 (hyper-permeable); MHB; read-out: Minimum Inhibitory Concentration, E. coli D22
Procedure, shortened: as §1

[1] = system: K. pneumoniae 848844 producing SHV-11 and KPC-2; conditions: Klebsiella pneumoniae, read-out: Minimum Inhibitory Concentration, K. pneumoniae 848844
Procedure, shortened: as §1

E. coli AG100A = conditions: Escherichia coli, read-out: Minimum Inhibitory Concentration, E. coli AG100A
Procedure, shortened: as §1

A. baumannii ATCC 19606 = conditions: Acinetobacter baumannii, ATCC19606; MHB; read-out: Minimum Inhibitory Concentration, A. baumannii ATCC 19606
Procedure, shortened: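 Lowest compound concentration with no visible growth after 16-20 h at 37 °C defines MIC. Plates of 2-fold serial dilutions in cation-adjusted Mueller Hinton broth received 2-8×10^5 CFU/mL of exponentially grown cells, per CLSI methods; panel spans reference, hyper-permeable and efflux-pump-deleted strains.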

E. coli ATCC 25922 = conditions: Escherichia coli, ATCC25922; E. coli ATCC 25922; MHB; read-out: Minimum Inhibitory Concentration, E. coli 25922
Procedure, shortened: as §1

[2] = system: K. pneumoniae UMM producing SHV-5 and KPC-2; conditions: Klebsiella pneumoniae, read-out: Minimum Inhibitory Concentration, K. pneumoniae UMM
Procedure, shortened: as §1

[3] = system: K. pneumoniae SI-117 producing VIM-1; conditions: Klebsiella pneumoniae, read-out: Minimum Inhibitory Concentration, K. pneumoniae SI-117
Procedure, shortened: as §1

P. aeruginosa ATCC 27853 = conditions: Pseudomonas aeruginosa, ATCC27853; MHB; read-out: Minimum Inhibitory Concentration, P. aeruginosa ATCC 27853
Procedure, shortened: as §1

P. aeruginosa ATCC 35151 = conditions: Pseudomonas aeruginosa, ATCC35151; MHB; hyper-permeable strain; read-out: Minimum Inhibitory Concentration, P. aeruginosa ATCC 35151
Procedure, shortened: as §1

[4] = system: P. aeruginosa (ΔmexAB-oprM); conditions: Pseudomonas aeruginosa, read-out: Minimum Inhibitory Concentration, P. aeruginosa ΔmexAB-OprM
Procedure, shortened: as §1

NCCN1CCN(C(=O)NC(C(=O)N[C@H]2Cc3cccc(C(=O)O)c3OB2O)c2ccc(C(=O)O)c(Cl)c2)C(=O)C1=O (stereo partly drawn) [Example 153, (3R)-3-(2-(4-(2-aminoethyl)-2,3-dioxopiperazine-1-carboxamido)-2-(4-carboxy-3-chlorophenyl)acetamido)-2-hydroxy-3,4-dihydro-2H-benzo[e][1,2]oxaborinine-8-carboxylic acid]
MIC (E. coli 901C): 0.5 to 1 µg/mL (≈ 0.831 to 1.66 µM) | MIC (E. coli AG100): 32 to 64 µg/mL (≈ 53.2 to 106 µM) | MIC (E. coli D22): 2 to 4 µg/mL (≈ 3.32 to 6.65 µM) | MIC [1]: > 128 µg/mL | MIC (E. coli AG100A): 8 to 16 µg/mL (≈ 13.3 to 26.6 µM) | MIC (A. baumannii ATCC 19606): > 128 µg/mL | MIC (E. coli ATCC 25922): 32 to 64 µg/mL (≈ 53.2 to 106 µM) | MIC [2]: 32 to 64 µg/mL (≈ 53.2 to 106 µM) | MIC [3]: > 128 µg/mL | MIC (P. aeruginosa ATCC 27853): 32 to 64 µg/mL (≈ 53.2 to 106 µM) | MIC (P. aeruginosa ATCC 35151): 0.5 to 1 µg/mL (≈ 0.831 to 1.66 µM) | MIC [4]: 8 to 16 µg/mL (≈ 13.3 to 26.6 µM)

O=C(O)c1cccc2c1OB(O)[C@@H](NC(=O)C(NC(=O)N1CCNC1=O)c1c(F)cc(O)cc1F)C2 (stereo partly drawn) [Example 156, (3R)-3-(2-(2,6-difluoro-4-hydroxyphenyl)-2-(2-oxoimidazolidine-1-carboxamido)acetamido)-2-hydroxy-3,4-dihydro-2H-benzo[e][1,2]oxaborinine-8-carboxylic acid]
MIC (E. coli 901C): 0.5 to 1 µg/mL (≈ 0.992 to 1.98 µM) | MIC (E. coli AG100): 32 to 64 µg/mL (≈ 63.5 to 127 µM) | MIC (E. coli D22): 8 to 16 µg/mL (≈ 15.9 to 31.7 µM) | MIC [1]: 32 to 64 µg/mL (≈ 63.5 to 127 µM) | MIC (E. coli AG100A): 2 to 4 µg/mL (≈ 3.97 to 7.93 µM) | MIC (A. baumannii ATCC 19606): > 128 µg/mL | MIC (E. coli ATCC 25922): 32 to 64 µg/mL (≈ 63.5 to 127 µM) | MIC [2]: 32 to 64 µg/mL (≈ 63.5 to 127 µM) | MIC [3]: 32 to 64 µg/mL (≈ 63.5 to 127 µM) | MIC (P. aeruginosa ATCC 27853): > 128 µg/mL | MIC (P. aeruginosa ATCC 35151): 0.5 to 1 µg/mL (≈ 0.992 to 1.98 µM) | MIC [4]: 8 to 16 µg/mL (≈ 15.9 to 31.7 µM)

CCN1CCN(C(=O)NC(C(=O)N[C@H]2Cc3cccc(C(=O)O)c3OB2O)c2c(F)cc(C(=O)O)cc2F)C(=O)C1=O (stereo partly drawn) [Example 157, (3R)-3-(2-(4-carboxy-2,6-difluorophenyl)-2-(4-ethyl-2,3-dioxopiperazine-1-carboxamido)acetamido)-2-hydroxy-3,4-dihydro-2H-benzo[e][1,2]oxaborinine-8-carboxylic acid]
MIC (E. coli 901C): < 0.25 µg/mL | MIC (E. coli AG100): 32 to 64 µg/mL (≈ 54.4 to 109 µM) | MIC (E. coli D22): 2 to 4 µg/mL (≈ 3.4 to 6.8 µM) | MIC [1]: > 128 µg/mL | MIC (E. coli AG100A): 8 to 16 µg/mL (≈ 13.6 to 27.2 µM) | MIC (A. baumannii ATCC 19606): > 128 µg/mL | MIC (E. coli ATCC 25922): 32 to 64 µg/mL (≈ 54.4 to 109 µM) | MIC [2]: 32 to 64 µg/mL (≈ 54.4 to 109 µM) | MIC [3]: > 128 µg/mL | MIC (P. aeruginosa ATCC 27853): > 128 µg/mL | MIC (P. aeruginosa ATCC 35151): 0.5 to 1 µg/mL (≈ 0.85 to 1.7 µM) | MIC [4]: 8 to 16 µg/mL (≈ 13.6 to 27.2 µM)

CCN1CCN(C(=O)NC(C(=O)N[C@H]2Cc3cccc(C(=O)O)c3OB2O)c2cc(F)c(O)c(F)c2)C(=O)C1=O (stereo partly drawn) [Example 160, (3R)-3-(2-(3,5-difluoro-4-hydroxyphenyl)-2-(4-ethyl-2,3-dioxopiperazine-1-carboxamido)acetamido)-2-hydroxy-3,4-dihydro-2H-benzo[e][1,2]oxaborinine-8-carboxylic acid]
MIC (E. coli 901C): < 0.25 µg/mL | MIC (E. coli AG100): 32 to 64 µg/mL (≈ 57.1 to 114 µM) | MIC (E. coli D22): 2 to 4 µg/mL (≈ 3.57 to 7.14 µM) | MIC [1]: 32 to 64 µg/mL (≈ 57.1 to 114 µM) | MIC (E. coli AG100A): 2 to 4 µg/mL (≈ 3.57 to 7.14 µM) | MIC (A. baumannii ATCC 19606): > 128 µg/mL | MIC (E. coli ATCC 25922): 32 to 64 µg/mL (≈ 57.1 to 114 µM) | MIC [2]: 32 to 64 µg/mL (≈ 57.1 to 114 µM) | MIC [3]: > 128 µg/mL | MIC (P. aeruginosa ATCC 27853): > 128 µg/mL | MIC (P. aeruginosa ATCC 35151): < 0.25 µg/mL | MIC [4]: 2 to 4 µg/mL (≈ 3.57 to 7.14 µM)

NCCN1CCN(C(=O)NC(C(=O)N[C@H]2Cc3cccc(C(=O)O)c3OB2O)c2cc(F)c(O)c(Cl)c2)C(=O)C1=O (stereo partly drawn) [Example 163, (3R)-3-(2-(4-(2-aminoethyl)-2,3-dioxopiperazine-1-carboxamido)-2-(3-chloro-5-fluoro-4-hydroxyphenyl)acetamido)-2-hydroxy-3,4-dihydro-2H-benzo[e][1,2]oxaborinine-8-carboxylic acid]
MIC (E. coli 901C): 0.5 to 1 µg/mL (≈ 0.845 to 1.69 µM) | MIC (E. coli AG100): 32 to 64 µg/mL (≈ 54.1 to 108 µM) | MIC (E. coli D22): 8 to 16 µg/mL (≈ 13.5 to 27 µM) | MIC [1]: > 128 µg/mL | MIC (E. coli AG100A): 2 to 4 µg/mL (≈ 3.38 to 6.76 µM) | MIC (A. baumannii ATCC 19606): > 128 µg/mL | MIC (E. coli ATCC 25922): 32 to 64 µg/mL (≈ 54.1 to 108 µM) | MIC [2]: 32 to 64 µg/mL (≈ 54.1 to 108 µM) | MIC [3]: > 128 µg/mL | MIC (P. aeruginosa ATCC 27853): 32 to 64 µg/mL (≈ 54.1 to 108 µM) | MIC (P. aeruginosa ATCC 35151): < 0.25 µg/mL | MIC [4]: 2 to 4 µg/mL (≈ 3.38 to 6.76 µM)
